Reference: patent publication EP0411334B1, “Antiherpes pentapeptide derivatives having a substituted aspartic acid side chain” (BIO-MEGA/BOEHRINGER INGELHEIM RESEARCH INC., priority 1989, dated 1991)
Where a SMILES comes first, the peptide text is derived from it. [ ]: non-standard residue; d: D form. The star is where a group is joined. Dihydrocaffeoyl = O=C(CCc1ccc(O)c(O)c1)*; Benzoyl(2-Ph) = O=C(c1ccccc1-c1ccccc1)*; Desaminotyrosyl = O=C(CCc1ccc(O)cc1)*; Hydrocinnamoyl = O=C(CCc1ccccc1)*; N(Me)CH2CH2Ph = CN(CCc1ccccc1)*; Pentanoyl(4-Me) = CC(C)CCC(=O)*; O(2S-octyl) = CCCCCC[C@H](C)O*; NHPhenethyl = c1ccc(CCN*)cc1; NMeV = CN[C@H](C(=O)O)C(C)C; Morpholide = C1CN(*)CCO1; Pyrrolidide = C1CCN(*)C1; NiPr2 = CC(C)N(C(C)C)*; X1 = CCCCCC[C@@H](C)O*; X3 = c1ccc(CCCO*)cc1; X8 = CN(CCc1ccccn1)*; Bz = O=C(c1ccccc1)*; NHPh = c1ccc(N*)cc1; N(Me)OMe = CON(C)*; NEt2 = CCN(CC)*

target: HSV-1 ribonucleotide reductase (Human herpesvirus 1, UniProt P08543); assay: biochemical
Sequence (P08543 whole entry): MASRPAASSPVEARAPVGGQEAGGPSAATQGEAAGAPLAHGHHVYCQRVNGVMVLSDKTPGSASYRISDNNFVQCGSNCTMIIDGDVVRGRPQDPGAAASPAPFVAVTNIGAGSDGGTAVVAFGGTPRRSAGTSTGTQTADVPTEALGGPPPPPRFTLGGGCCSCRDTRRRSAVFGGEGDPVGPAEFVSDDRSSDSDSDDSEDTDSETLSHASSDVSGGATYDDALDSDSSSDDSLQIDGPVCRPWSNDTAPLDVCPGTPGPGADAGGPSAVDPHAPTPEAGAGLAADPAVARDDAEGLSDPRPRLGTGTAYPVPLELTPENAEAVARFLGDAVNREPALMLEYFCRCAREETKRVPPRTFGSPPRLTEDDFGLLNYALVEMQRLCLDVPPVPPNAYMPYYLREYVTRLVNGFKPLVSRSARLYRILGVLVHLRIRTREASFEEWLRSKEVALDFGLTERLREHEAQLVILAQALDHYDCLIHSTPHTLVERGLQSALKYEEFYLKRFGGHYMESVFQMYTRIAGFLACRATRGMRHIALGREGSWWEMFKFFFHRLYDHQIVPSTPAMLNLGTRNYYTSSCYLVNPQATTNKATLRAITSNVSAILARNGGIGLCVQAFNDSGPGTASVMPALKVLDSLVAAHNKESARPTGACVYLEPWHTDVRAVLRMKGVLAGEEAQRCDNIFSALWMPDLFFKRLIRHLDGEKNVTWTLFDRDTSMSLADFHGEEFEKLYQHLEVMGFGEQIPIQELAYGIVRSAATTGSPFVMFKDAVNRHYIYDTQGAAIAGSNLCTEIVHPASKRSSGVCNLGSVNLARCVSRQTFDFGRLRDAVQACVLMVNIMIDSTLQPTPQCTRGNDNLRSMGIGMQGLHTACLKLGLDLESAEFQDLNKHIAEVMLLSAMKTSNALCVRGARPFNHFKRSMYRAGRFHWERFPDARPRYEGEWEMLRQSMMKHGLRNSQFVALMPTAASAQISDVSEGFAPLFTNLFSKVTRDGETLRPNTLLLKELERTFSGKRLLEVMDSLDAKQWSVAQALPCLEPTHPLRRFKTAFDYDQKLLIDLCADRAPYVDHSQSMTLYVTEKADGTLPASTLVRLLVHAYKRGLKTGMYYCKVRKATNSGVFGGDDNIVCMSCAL
Text: Inhibition of Herpes Simplex Virus (HSV, type 1) Ribonucleotide Reductase
• a) Preparation of Enzyme HSV-1 ribonucleotide reductase (partially purified) was obtained from quiescent BHK-21/C13 cells infected with strain F HSV-1 virus at 10 plaque forming units/cell as described by E.A. Cohen et al., J. Gen. […] The number of units of the enzyme preparation used in each assay was constant, based on the specific activity of the enzyme preparation.

Row | Structure (SMILES) | IC50
1 | CCCCCC[C@H](C)OC(=O)C[C@H](NC(=O)[C@@H](NC(=O)[C@H](C(C)C)N(C)C(=O)CCc1ccccc1)[C@@H](C)CC)C(=O)N[C@@H](CC(=O)O)C(=O)N[C@@H](CC(C)C)C(=O)O [Entry 1] (Hydrocinnamoyl-[NMeV]ID(O(2S-octyl))DL-OH) | 700 nM
2 | CCCCCC[C@@H](C)OC(=O)C[C@H](NC(=O)[C@@H](NC(=O)[C@H](C(C)C)N(C)C(=O)CCc1ccccc1)[C@@H](C)CC)C(=O)N[C@@H](CC(=O)O)C(=O)N[C@@H](CC(C)C)C(=O)O [Entry 2] (Hydrocinnamoyl-[NMeV]ID(X1)DL-OH) | 700 nM
3 | CC[C@H](C)[C@H](NC(=O)[C@H](C(C)C)N(C)C(=O)CCc1ccccc1)C(=O)N[C@@H](CC(=O)N(C)C)C(=O)N[C@@H](CC(=O)O)C(=O)N[C@@H](CC(C)C)C(=O)O [Entry 3] (Hydrocinnamoyl-[NMeV]ID(NMe2)DL-OH) | 190 nM
4 | CC[C@H](C)[C@H](NC(=O)[C@H](C(C)C)N(C)C(=O)CCc1ccccc1)C(=O)N[C@@H](CC(=O)N(CC)CC)C(=O)N[C@@H](CC(=O)O)C(=O)N[C@@H](CC(C)C)C(=O)O [Entry 4] (Hydrocinnamoyl-[NMeV]ID(NEt2)DL-OH) | 260 nM
5 | CC[C@H](C)[C@H](NC(=O)[C@H](C(C)C)N(C)C(=O)CCc1ccccc1)C(=O)N[C@@H](CC(=O)N(C(C)C)C(C)C)C(=O)N[C@@H](CC(=O)O)C(=O)N[C@@H](CC(C)C)C(=O)O [Entry 5] (Hydrocinnamoyl-[NMeV]ID(NiPr2)DL-OH) | 250 nM
6 | CC[C@H](C)[C@H](NC(=O)[C@H](C(C)C)N(C)C(=O)CCc1ccccc1)C(=O)N[C@@H](CC(=O)N1CCCC1)C(=O)N[C@@H](CC(=O)O)C(=O)N[C@@H](CC(C)C)C(=O)O [Entry 6] (Hydrocinnamoyl-[NMeV]ID(Pyrrolidide)DL-OH) | 110 nM
7 | CC[C@H](C)[C@H](NC(=O)[C@H](C(C)C)N(C)C(=O)CCc1ccccc1)C(=O)N[C@@H](CC(=O)N1CCOCC1)C(=O)N[C@@H](CC(=O)O)C(=O)N[C@@H](CC(C)C)C(=O)O [Entry 7] (Hydrocinnamoyl-[NMeV]ID(Morpholide)DL-OH) | 180 nM
8 | CC[C@H](C)[C@H](NC(=O)[C@H](C(C)C)N(C)C(=O)CCc1ccccc1)C(=O)N[C@@H](CC(=O)N(C)OC)C(=O)N[C@@H](CC(=O)O)C(=O)N[C@@H](CC(C)C)C(=O)O [Entry 8] (Hydrocinnamoyl-[NMeV]ID(N(Me)OMe)DL-OH) | 190 nM
9 | CC[C@H](C)[C@H](NC(=O)[C@H](C(C)C)N(C)C(=O)CCc1ccc(O)cc1)C(=O)N[C@@H](CC(=O)OCCCc1ccccc1)C(=O)N[C@@H](CC(=O)O)C(=O)N[C@@H](CC(C)C)C(=O)O [Entry 9] (Desaminotyrosyl-[NMeV]ID(X3)DL-OH) | 650 nM
10 | CC[C@H](C)[C@H](NC(=O)[C@H](C(C)C)N(C)C(=O)CCc1ccc(O)cc1)C(=O)N[C@@H](CC(=O)Nc1ccccc1)C(=O)N[C@@H](CC(=O)O)C(=O)N[C@@H](CC(C)C)C(=O)O [Entry 10] (Desaminotyrosyl-[NMeV]ID(NHPh)DL-OH) | 1600 nM
11 | CC[C@H](C)[C@H](NC(=O)[C@H](C(C)C)N(C)C(=O)CCc1ccc(O)cc1)C(=O)N[C@@H](CC(=O)NCCc1ccccc1)C(=O)N[C@@H](CC(=O)O)C(=O)N[C@@H](CC(C)C)C(=O)O [Entry 11] (Desaminotyrosyl-[NMeV]ID(NHPhenethyl)DL-OH) | 510 nM
12 | CC[C@H](C)[C@H](NC(=O)[C@H](C(C)C)N(C)C(=O)CCc1ccc(O)cc1)C(=O)N[C@@H](CC(=O)N(C)C)C(=O)N[C@@H](CC(=O)O)C(=O)N[C@@H](CC(C)C)C(=O)O [Entry 12] (Desaminotyrosyl-[NMeV]ID(NMe2)DL-OH) | 90 nM
13 | CC[C@H](C)[C@H](NC(=O)[C@H](C(C)C)N(C)C(=O)CCc1ccc(O)cc1)C(=O)N[C@@H](CC(=O)N(CC)CC)C(=O)N[C@@H](CC(=O)O)C(=O)N[C@@H](CC(C)C)C(=O)O [Entry 13, DAT-N-Me-Val-Ile-Asp(NEt₂)-Asp-Leu-OH] (Desaminotyrosyl-[NMeV]ID(NEt2)DL-OH) | 270 nM
14 | CC[C@H](C)[C@H](NC(=O)[C@H](C(C)C)N(C)C(=O)CCc1ccc(O)cc1)C(=O)N[C@@H](CC(=O)N(C)CCc1ccccc1)C(=O)N[C@@H](CC(=O)O)C(=O)N[C@@H](CC(C)C)C(=O)O [Entry 14] (Desaminotyrosyl-[NMeV]ID(N(Me)CH2CH2Ph)DL-OH) | 380 nM
15 | CC[C@H](C)[C@H](NC(=O)[C@H](C(C)C)N(C)C(=O)CCc1ccc(O)cc1)C(=O)N[C@@H](CC(=O)N(C)CCc1ccccn1)C(=O)N[C@@H](CC(=O)O)C(=O)N[C@@H](CC(C)C)C(=O)O [Entry 15] (Desaminotyrosyl-[NMeV]ID(X8)DL-OH) | 290 nM
16 | CC[C@H](C)[C@H](NC(=O)[C@H](C(C)C)N(C)C(=O)CCc1ccc(O)cc1)C(=O)N[C@@H](CC(=O)N1CCOCC1)C(=O)N[C@@H](CC(=O)O)C(=O)N[C@@H](CC(C)C)C(=O)O [Entry 16] (Desaminotyrosyl-[NMeV]ID(Morpholide)DL-OH) | 370 nM
17 | CC[C@H](C)[C@H](NC(=O)[C@@H](NC(=O)CCc1ccc(O)cc1)C(C)C)C(=O)N[C@@H](CC(=O)NCCc1ccccc1)C(=O)N[C@@H](CC(=O)O)C(=O)N[C@@H](CC(C)C)C(=O)O [Entry 17] (Desaminotyrosyl-VID(NHPhenethyl)DL-OH) | 1700 nM
18 | CCNC(=O)C[C@H](NC(=O)[C@@H](NC(=O)[C@@H](NC(=O)CCc1ccc(O)cc1)C(C)C)[C@@H](C)CC)C(=O)N[C@@H](CC(=O)O)C(=O)N[C@@H](CC(C)C)C(=O)O [Entry 18] (Desaminotyrosyl-VID(NHEt)DL-OH) | 1750 nM
19 | CC[C@H](C)[C@H](NC(=O)[C@@H](NC(=O)CCc1ccc(O)cc1)C(C)C)C(=O)N[C@@H](CC(=O)N(CC)CC)C(=O)N[C@@H](CC(=O)O)C(=O)N[C@@H](CC(C)C)C(=O)O [Entry 19] (Desaminotyrosyl-VID(NEt2)DL-OH) | 560 nM
20 | CC[C@H](C)[C@H](NC(=O)[C@@H](NC(=O)CCc1ccc(O)cc1)C(C)C)C(=O)N[C@@H](CC(=O)N(C)CCc1ccccc1)C(=O)N[C@@H](CC(=O)O)C(=O)N[C@@H](CC(C)C)C(=O)O [Entry 20] (Desaminotyrosyl-VID(N(Me)CH2CH2Ph)DL-OH) | 550 nM
21 | CC[C@H](C)[C@H](NC(=O)[C@@H](NC(=O)c1ccccc1-c1ccccc1)C(C)C)C(=O)N[C@@H](CC(=O)NCCc1ccccc1)C(=O)N[C@@H](CC(=O)O)C(=O)N[C@@H](CC(C)C)C(=O)O [Entry 21, 2-Biphenylylcarbonyl-Val-Ile-Asp-(NHCH₂CH₂Ph)-Asp-Leu-OH] ({Benzoyl(2-Ph)}-VID(NHPhenethyl)DL-OH) | 1250 nM
22 | CC[C@H](C)[C@H](NC(=O)[C@@H](NC(=O)c1ccccc1)C(C)C)C(=O)N[C@@H](CC(=O)NCCc1ccccc1)C(=O)N[C@@H](CC(=O)O)C(=O)N[C@@H](CC(C)C)C(=O)O [Entry 22, Benzoyl-Val-Ile-Asp-(NHCH₂CH₂Ph)-Asp-Leu-OH] (Bz-VID(NHPhenethyl)DL-OH) | 7600 nM
23 | CC[C@H](C)[C@H](NC(=O)[C@@H](NC(C)=O)C(C)C)C(=O)N[C@@H](CC(=O)NCCc1ccccc1)C(=O)N[C@@H](CC(=O)O)C(=O)N[C@@H](CC(C)C)C(=O)O [Entry 23, Ac-Val-Ile-Asp(NHCH₂CH₂Ph)-Asp-Leu-OH] (Ac-VID(NHPhenethyl)DL-OH) | 18000 nM
24 | CC[C@H](C)[C@H](NC(=O)[C@H](C(C)C)N(C)C(=O)CCC(C)C)C(=O)N[C@@H](CC(=O)N(CC)CC)C(=O)N[C@@H](CC(=O)O)C(=O)N[C@@H](CC(C)C)C(=O)O [Entry 25, 4-Methylpentanoyl-N-Me-Val-Ile-Asp(NEt₂)-Asp-Leu-OH] ({Pentanoyl(4-Me)}-[NMeV]ID(NEt2)DL-OH) | 500 nM
25 | CCN(CC)C(=O)C[C@H](NC(=O)[C@@H](NC(=O)[C@H](C(C)C)N(C)C(=O)CCc1ccccc1)[C@@H](C)O)C(=O)N[C@@H](CC(=O)O)C(=O)N[C@@H](CC(C)C)C(=O)O [Entry 26, PhCH₂CH₂CO-N-Me-Val-Thr-Asp(NEt₂)-Asp-Leu-OH] (Hydrocinnamoyl-[NMeV]TD(NEt2)DL-OH) | 300 nM
26 | CC[C@H](C)[C@H](NC(=O)[C@H](C(C)C)N(C)C(=O)CCc1ccccc1)C(=O)N[C@@H](CC(=O)N1CCOCC1)C(=O)N[C@@H](CC(=O)O)C(=O)N[C@@H](CC(C)C)C(=O)N(CC)CC [Entry 27, PhCH₂CH₂CO-N-Me-Val-Ile-Asp(morpholino)-Asp-Leu-NEt₂] (Hydrocinnamoyl-[NMeV]ID(Morpholide)DL-NEt2) | 2600 nM
27 | CC[C@H](C)[C@H](NC(=O)[C@H](C(C)C)N(C)C(=O)CCc1ccc(O)c(O)c1)C(=O)N[C@@H](CC(=O)N1CCCC1)C(=O)N[C@@H](CC(=O)O)C(=O)N[C@@H](CC(C)C)C(=O)O [Entry 28, (3,4-Dihydroxy-Ph)-CH₂CH₂CO-N-Me-Val-Ile-Asp(pyrrolidino)-Asp-Leu-OH] (Dihydrocaffeoyl-[NMeV]ID(Pyrrolidide)DL-OH) | 250 nM
